Reference: ChEMBL document CHEMBL4177696, “Identification of a diverse synthetic abietane diterpenoid library and insight into the structure-activity relationships for antibacterial activity” (Bioorg Med Chem Lett, 2017)
Converted amounts (≈) assume the structure as drawn.

Assays:
Staphylococcus aureus = experiment: Antibacterial activity against Staphylococcus aureus measured after 24 hrs; assay type: functional
Bacillus subtilis = experiment: Antibacterial activity against Bacillus subtilis measured after 24 hrs; assay type: functional
Escherichia coli = experiment: Antibacterial activity against Escherichia coli measured after 24 hrs; assay type: functional
Pseudomonas fluorescens = experiment: Antibacterial activity against Pseudomonas fluorescens measured after 24 hrs; assay type: functional
[1] = Cytotoxicity against HFF measured after 72 hrs by MTT assay; assay type: cell-based; settings: human, HFF cells
[2] = Cytotoxicity against human HL-7702 cells measured after 72 hrs by MTT assay; assay type: cell-based; settings: HL-7702 (L02) cells

SMILES | MIC (Staphylococcus aureus) [µg/mL] | MIC (Bacillus subtilis) [µg/mL] | MIC (Escherichia coli) [µg/mL] | MIC (Pseudomonas fluorescens) [µg/mL] | CC50 at 72 h [1] [µg/mL] | CC50 at 72 h [2] [µg/mL]
COc1cccc2c1CC[C@H]1[C@H]3COC(=O)[C@@]3(O)C(=O)C[C@]21C | 1.6 (≈ 5.06 µM) | 0.8 (≈ 2.53 µM) | 1.6 (≈ 5.06 µM) | 1.6 (≈ 5.06 µM) | > 50 | 47.5 (≈ 150 µM)
C=C1C(=O)CC[C@]2(C)c3cccc(OC)c3CC[C@@H]12 | 3.1 (≈ 12.1 µM) | 6.3 (≈ 24.6 µM) | 6.3 (≈ 24.6 µM) | 3.1 (≈ 12.1 µM) | 9.1 (≈ 35.5 µM) | 9.3 (≈ 36.3 µM)
COc1cccc2c1CC[C@H]1[C@H]3COC(=O)C3=CC[C@]21C | 6.3 (≈ 22.2 µM) | 6.3 (≈ 22.2 µM) | 3.1 (≈ 10.9 µM) | 6.3 (≈ 22.2 µM) | 25.2 (≈ 88.6 µM) | 9.9 (≈ 34.8 µM)
COC(=O)[C@]1(C)CCC[C@]2(C)c3ccc(C(C)C)c(NC(=O)Cn4cc(-c5cccnc5)nn4)c3CC[C@@H]12 | 3.1 (≈ 6.01 µM) | 12.5 (≈ 24.2 µM) | 3.1 (≈ 6.01 µM) | 6.3 (≈ 12.2 µM) | 48.2 (≈ 93.5 µM) | 47.9 (≈ 92.9 µM)
COC(=O)[C@]1(C)CCC[C@]2(C)c3ccc(C(C)C)c(NC(=O)Cn4cc(-c5cccc(NC(=O)OC(C)(C)C)c5)nn4)c3CC[C@@H]12 | 6.3 (≈ 10 µM) | 12.5 (≈ 19.8 µM) | 12.5 (≈ 19.8 µM) | 25 (≈ 39.7 µM) | – | –
COC(=O)[C@]1(C)CCC[C@]2(C)c3ccc(C(C)C)c(NC(=O)Cn4cc(-c5ccc([N+](=O)[O-])cc5)nn4)c3CC[C@@H]12 | 25 (≈ 44.7 µM) | 50 (≈ 89.3 µM) | 75 (≈ 134 µM) | 12.5 (≈ 22.3 µM) | – | –
COC(=O)[C@]1(C)CCC[C@]2(C)c3ccc(C(C)C)c(NC(=O)Cn4cc(-c5ccncc5)nn4)c3CC[C@@H]12 | 0.8 (≈ 1.55 µM) | 6.3 (≈ 12.2 µM) | 25 (≈ 48.5 µM) | 3.1 (≈ 6.01 µM) | – | –
COC(=O)[C@]1(C)CCC[C@]2(C)c3ccc(C(C)C)c(NC(=O)Cn4cc(-c5cccc(NC(C)=O)c5)nn4)c3CC[C@@H]12 | 6.3 (≈ 11 µM) | 6.3 (≈ 11 µM) | 3.1 (≈ 5.42 µM) | 6.3 (≈ 11 µM) | 12.2 (≈ 21.3 µM) | 9.7 (≈ 17 µM)
COC(=O)[C@]1(C)CCC[C@]2(C)c3ccc(C(C)C)c(NC(=O)Cn4cc(-c5ccc6ccccc6c5)nn4)c3CC[C@@H]12 | 75 (≈ 133 µM) | 50 (≈ 88.5 µM) | 25 (≈ 44.3 µM) | 25 (≈ 44.3 µM) | – | –
COC(=O)[C@]1(C)CCC[C@]2(C)c3ccc(C(C)C)c(NC(=O)Cn4cc(-c5cccc([N+](=O)[O-])c5)nn4)c3CC[C@@H]12 | 25 (≈ 44.7 µM) | 50 (≈ 89.3 µM) | 75 (≈ 134 µM) | 50 (≈ 89.3 µM) | – | –
COC(=O)[C@]1(C)CCC[C@]2(C)c3ccc(C(C)C)c(NC(=O)Cn4cc(-c5ccccn5)nn4)c3CC[C@@H]12 | 25 (≈ 48.5 µM) | 12.5 (≈ 24.2 µM) | 12.5 (≈ 24.2 µM) | 12.5 (≈ 24.2 µM) | – | –
COC(=O)[C@]1(C)CCC[C@]2(C)c3ccc(C(C)C)c(NC(=O)Cn4cc(-c5cc(OC)cc(OC)c5)nn4)c3CC[C@@H]12 | 25 (≈ 43.5 µM) | 100 (≈ 174 µM) | 75 (≈ 130 µM) | 75 (≈ 130 µM) | – | –
COC(=O)[C@]1(C)CCC[C@]2(C)c3ccc(C(C)C)c(NC(=O)Cn4cc(-c5ccc(OC(F)(F)F)cc5)nn4)c3CC[C@@H]12 | 25 (≈ 41.8 µM) | 50 (≈ 83.5 µM) | 50 (≈ 83.5 µM) | 75 (≈ 125 µM) | – | –
COC(=O)[C@]1(C)CCC[C@]2(C)c3ccc(C(C)C)c(NC(=O)Cn4cc(-c5cccs5)nn4)c3CC[C@@H]12 | 12.5 (≈ 24 µM) | 6.3 (≈ 12.1 µM) | 50 (≈ 96 µM) | 6.3 (≈ 12.1 µM) | – | –
COC(=O)[C@]1(C)CCC[C@]2(C)c3ccc(C(C)C)c(NC(=O)Cn4cc(-c5ccc(-c6ccccc6)cc5)nn4)c3CC[C@@H]12 | 50 (≈ 84.6 µM) | 75 (≈ 127 µM) | 25 (≈ 42.3 µM) | 50 (≈ 84.6 µM) | – | –
COC(=O)[C@]1(C)CCC[C@]2(C)c3ccc(C(C)C)c(NC(=O)Cn4cc(-c5ccc(C#N)cc5)nn4)c3CC[C@@H]12 | 25 (≈ 46.3 µM) | 12.5 (≈ 23.2 µM) | 12.5 (≈ 23.2 µM) | 25 (≈ 46.3 µM) | – | –
CCCCCOc1ccc(-c2cn(CC(=O)Nc3c(C(C)C)ccc4c3CC[C@H]3[C@](C)(C(=O)OC)CCC[C@]43C)nn2)cc1 | 100 (≈ 166 µM) | 75 (≈ 125 µM) | 75 (≈ 125 µM) | 75 (≈ 125 µM) | – | –
COC(=O)[C@]1(C)CCC[C@]2(C)c3ccc(C(C)C)c(NC(=O)Cn4cc(-c5cncnc5)nn4)c3CC[C@@H]12 | 1.6 (≈ 3.1 µM) | 3.1 (≈ 6 µM) | 1.6 (≈ 3.1 µM) | 1.6 (≈ 3.1 µM) | 41.8 (≈ 80.9 µM) | 31.7 (≈ 61.4 µM)
COC(=O)[C@]1(C)CCC[C@]2(C)c3ccc(C(C)C)c(NC(=O)Cn4cc(-c5cccc(Br)c5)nn4)c3CC[C@@H]12 | 25 (≈ 42.1 µM) | 25 (≈ 42.1 µM) | 12.5 (≈ 21.1 µM) | 12.5 (≈ 21.1 µM) | – | –

SMILES | MIC (Staphylococcus aureus) [µg/mL] | MIC (Bacillus subtilis) [µg/mL] | MIC (Escherichia coli) [µg/mL] | MIC (Pseudomonas fluorescens) [µg/mL] | CC50 at 72 h [1] [µg/mL] | CC50 at 72 h [2] [µg/mL]
COC(=O)c1ccc(-c2cn(CC(=O)Nc3c(C(C)C)ccc4c3CC[C@H]3[C@](C)(C(=O)OC)CCC[C@]43C)nn2)cc1 | 12.5 (≈ 21.8 µM) | 12.5 (≈ 21.8 µM) | 6.3 (≈ 11 µM) | 25 (≈ 43.7 µM) | – | –
CCOCOC[C@]12CCC(=C(SC)SC)C(=O)[C@@H]1CCc1c2ccc(C(C)C)c1OC | 6.3 (≈ 13.6 µM) | 0.8 (≈ 1.72 µM) | 6.3 (≈ 13.6 µM) | 1.6 (≈ 3.44 µM) | 11.4 (≈ 24.5 µM) | 13.2 (≈ 28.4 µM)
COC(=O)[C@]1(C)CCC[C@]2(C)c3ccc(C(C)C)c(NC(=O)Cn4cc(-c5ccc(OCc6ccccc6)cc5)nn4)c3CC[C@@H]12 | 50 (≈ 80.5 µM) | 50 (≈ 80.5 µM) | 75 (≈ 121 µM) | 75 (≈ 121 µM) | – | –
COC(=O)[C@]1(C)CCC[C@]2(C)c3ccc(C(C)C)c(NC(=O)Cn4cc(-c5nc(Cl)nc(Cl)n5)nn4)c3CC[C@@H]12 | 12.5 (≈ 21.3 µM) | 25 (≈ 42.6 µM) | 6.3 (≈ 10.7 µM) | 12.5 (≈ 21.3 µM) | – | –
COC(=O)[C@]1(C)CCC[C@]2(C)c3ccc(C(C)C)c(NC(=O)Cn4cc(-c5cccc(Cl)c5)nn4)c3CC[C@@H]12 | 50 (≈ 91.1 µM) | 12.5 (≈ 22.8 µM) | 12.5 (≈ 22.8 µM) | 25 (≈ 45.5 µM) | – | –
CCOCO[C@]12CCC[C@]3(CO1)c1ccc(C(C)C)c(OC)c1CC[C@@H]23 | 3.1 (≈ 8.6 µM) | 6.3 (≈ 17.5 µM) | 3.1 (≈ 8.6 µM) | 3.1 (≈ 8.6 µM) | 8.2 (≈ 22.7 µM) | 5.4 (≈ 15 µM)
COC(=O)[C@]1(C)CCC[C@]2(C)c3ccc(C(C)C)c(NC(=O)Cn4cc(-c5ccc(C(F)(F)F)cc5)nn4)c3CC[C@@H]12 | 25 (≈ 42.9 µM) | 12.5 (≈ 21.5 µM) | 12.5 (≈ 21.5 µM) | 25 (≈ 42.9 µM) | – | –
COC(=O)[C@]1(C)CCC[C@]2(C)c3ccc(C(C)C)c(NC(=O)Cn4cc(-c5cc(Cl)cc(Cl)c5)nn4)c3CC[C@@H]12 | 25 (≈ 42.8 µM) | 25 (≈ 42.8 µM) | 25 (≈ 42.8 µM) | 50 (≈ 85.7 µM) | – | –
COC(=O)[C@]1(C)CCC[C@]2(C)c3ccc(C(C)C)c(NC(=O)Cn4cc(-c5ccc(Br)cc5)nn4)c3CC[C@@H]12 | 25 (≈ 42.1 µM) | 12.5 (≈ 21.1 µM) | 25 (≈ 42.1 µM) | 6.3 (≈ 10.6 µM) | – | –
COc1c(C(C)C)ccc2c1CC=C1C3=C(CCC12C)C(=O)OC3 (single isomer, unassigned) | 75 (≈ 231 µM) | 100 (≈ 308 µM) | 75 (≈ 231 µM) | 100 (≈ 308 µM) | – | –
COc1c(C(C)C)ccc2c1[C@H](O)C=C1C3=C(CCC12C)C(=O)OC3 (single isomer, unassigned) | 3.1 (≈ 9.11 µM) | 6.3 (≈ 18.5 µM) | 3.1 (≈ 9.11 µM) | 3.1 (≈ 9.11 µM) | 9.2 (≈ 27 µM) | 10.3 (≈ 30.3 µM)
CC(C)C1=CC2=CC[C@@H]3[C@](C)(CCC[C@@]3(C)C(=O)O)[C@H]2CC1 [ABIETIC ACID] | 25 (≈ 82.7 µM) | 50 (≈ 165 µM) | 50 (≈ 165 µM) | 25 (≈ 82.7 µM) | – | –
NCC[C@H](O)C(=O)N[C@@H]1C[C@H](N)[C@@H](O[C@H]2O[C@H](CN)[C@@H](O)[C@H](O)[C@H]2O)[C@H](O)[C@H]1O[C@H]1O[C@H](CO)[C@@H](O)[C@H](N)[C@H]1O.O=S(=O)(O)O.O=S(=O)(O)O [AMIKACIN SULFATE] | 0.8 | 0.8 | 1.6 | 0.8 | – | –
CC(C)c1ccc2c(c1)CC[C@H]1[C@](C)(C(=O)O)CCC[C@]21C [DEHYDROABIETIC ACID] | 25 (≈ 83.2 µM) | 50 (≈ 166 µM) | 75 (≈ 250 µM) | 50 (≈ 166 µM) | – | –
COC(=O)[C@]1(C)CCC[C@@]2(C)[C@H]1CC=C1C=C(C(C)C)CC[C@@H]12 [METHYL ABIETATE] | 50 (≈ 158 µM) | 75 (≈ 237 µM) | 75 (≈ 237 µM) | 50 (≈ 158 µM) | – | –
COC(=O)[C@]1(C)CCC[C@]2(C)c3ccc(C(C)C)cc3CC[C@@H]12 [METHYL DEHYDROABIETATE] | 75 (≈ 238 µM) | 100 (≈ 318 µM) | 100 (≈ 318 µM) | 100 (≈ 318 µM) | – | –
CCn1cc(C(=O)O)c(=O)c2cc(F)c(N3CCNCC3)cc21 [NORFLOXACIN] | 1.6 (≈ 5.01 µM) | 1.6 (≈ 5.01 µM) | 3.1 (≈ 9.71 µM) | 1.6 (≈ 5.01 µM) | – | –
CC(C)c1ccc2c(c1O)CC[C@H]1C3=C(CC[C@]21C)C(=O)OC3 [TRIPTOPHENOLIDE] | 75 (≈ 240 µM) | 50 (≈ 160 µM) | 100 (≈ 320 µM) | 75 (≈ 240 µM) | – | –
